These are literature values, as cited in patent publication US20070042049A1, “Nanoparticulate benidipine compositions” (Elan Pharma International, Limited, priority 2005, published 2007).

Where a name gives a salt, the structure may show the parent alone. Read-outs that look alike come from different tables or passages of the source.

On to `COC(=O)C1=C(C)NC(C)=C(C(=O)O[C@@H]2CCCN(Cc3ccccc3)C2)C1c1cccc([N+](=O)[O-])c1` (stereo in doubt) [Benidipine hydrochloride], for which the solubility result reads like this: (in acetic anhydride) “slightly soluble”; (in dimethylformamide) “freely soluble”; (in ethanol) “soluble”; (in formic acid) “very soluble”; (in methanol) “soluble”; (in water) “relatively insoluble”.
